Laboratory results as given in ChEMBL document CHEMBL4507278 (2021).

Experiments:
[1] = target: Alpha-1B adrenergic receptor (Rattus norvegicus) (UniProt P15823); assay: ALPHA1B/R Eurofins-Panlabs selectivity data (BI); settings: Compound concentration 10.0 uM
[2] = target: T1, 5-hydroxytryptamine receptor 3A (Homo sapiens) (UniProt P46098); assay: 5HT3/HU Eurofins-Panlabs selectivity data (BI); settings: Compound concentration 10.0 uM
T1 sequence (whole entry): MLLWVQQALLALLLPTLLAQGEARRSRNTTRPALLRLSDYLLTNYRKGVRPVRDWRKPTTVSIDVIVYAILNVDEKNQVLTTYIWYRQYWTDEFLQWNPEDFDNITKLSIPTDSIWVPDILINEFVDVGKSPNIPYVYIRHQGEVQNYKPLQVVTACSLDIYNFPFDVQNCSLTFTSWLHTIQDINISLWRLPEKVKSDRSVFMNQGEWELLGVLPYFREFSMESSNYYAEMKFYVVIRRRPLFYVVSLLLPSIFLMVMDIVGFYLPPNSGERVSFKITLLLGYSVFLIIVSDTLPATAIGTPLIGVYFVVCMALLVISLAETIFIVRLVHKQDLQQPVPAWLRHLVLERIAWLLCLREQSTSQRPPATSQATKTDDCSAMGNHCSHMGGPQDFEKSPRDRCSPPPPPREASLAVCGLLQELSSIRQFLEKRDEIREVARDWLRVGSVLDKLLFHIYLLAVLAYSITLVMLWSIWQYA

[3] = target: T2, Alpha-1D adrenergic receptor (Homo sapiens) (UniProt P25100); assay: ALPHA1D/H Eurofins-Panlabs selectivity data (BI); settings: Compound concentration 10.0 uM
T2 sequence (whole entry): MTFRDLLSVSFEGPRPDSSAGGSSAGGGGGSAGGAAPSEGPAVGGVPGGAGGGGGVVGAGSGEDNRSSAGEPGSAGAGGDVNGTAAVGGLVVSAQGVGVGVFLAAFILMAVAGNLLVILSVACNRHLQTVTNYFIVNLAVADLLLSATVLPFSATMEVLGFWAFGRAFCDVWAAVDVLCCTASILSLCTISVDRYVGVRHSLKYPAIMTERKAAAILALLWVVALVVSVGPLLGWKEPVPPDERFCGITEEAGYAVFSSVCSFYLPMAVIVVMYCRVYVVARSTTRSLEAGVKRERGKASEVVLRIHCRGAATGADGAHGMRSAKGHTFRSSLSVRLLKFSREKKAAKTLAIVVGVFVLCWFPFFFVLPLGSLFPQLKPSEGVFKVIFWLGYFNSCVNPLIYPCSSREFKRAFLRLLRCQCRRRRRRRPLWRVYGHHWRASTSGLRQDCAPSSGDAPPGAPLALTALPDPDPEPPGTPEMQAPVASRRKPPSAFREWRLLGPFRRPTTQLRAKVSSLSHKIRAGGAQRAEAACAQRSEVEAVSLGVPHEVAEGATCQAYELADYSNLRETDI

[4] = target: Cannabinoid receptor 1 (Homo sapiens) (UniProt P21554); assay: CB1 Eurofins-Panlabs selectivity data (BI); settings: Compound concentration 10.0 uM
[5] = target: Neuropeptide Y receptor type 1 (Homo sapiens) (UniProt P25929); assay: Y1/HU Eurofins-Panlabs selectivity data (BI); settings: Compound concentration 10.0 uM
[6] = target: P2X purinoceptor (Oryctolagus cuniculus) (UniProt G1U3D6); assay: P2X/RB Eurofins-Panlabs selectivity data (BI); settings: Compound concentration 10.0 uM
[7] = target: ATP-sensitive inward rectifier potassium channel 1 isoform X1 (Mesocricetus auratus) (UniProt A0A1U8CU73); assay: K+/KATP/HA Eurofins-Panlabs selectivity data (BI); settings: Compound concentration 10.0 uM
[8] = target: Thyroid hormone receptor alpha (Rattus norvegicus) (UniProt P63059); assay: THYROID HORM Eurofins-Panlabs selectivity data (BI); settings: Compound concentration 10.0 uM
[9] = target: Dual specificity mitogen-activated protein kinase kinase 4 (Homo sapiens) (UniProt P45985); settings: Compound concentration 1000.0 nM
[10] = target: Leukocyte tyrosine kinase receptor (Homo sapiens) (UniProt P29376); settings: Compound concentration 1000.0 nM

Measured: residual activity

Sequence of Thyroid hormone receptor alpha (Rattus norvegicus) (P63059 whole entry): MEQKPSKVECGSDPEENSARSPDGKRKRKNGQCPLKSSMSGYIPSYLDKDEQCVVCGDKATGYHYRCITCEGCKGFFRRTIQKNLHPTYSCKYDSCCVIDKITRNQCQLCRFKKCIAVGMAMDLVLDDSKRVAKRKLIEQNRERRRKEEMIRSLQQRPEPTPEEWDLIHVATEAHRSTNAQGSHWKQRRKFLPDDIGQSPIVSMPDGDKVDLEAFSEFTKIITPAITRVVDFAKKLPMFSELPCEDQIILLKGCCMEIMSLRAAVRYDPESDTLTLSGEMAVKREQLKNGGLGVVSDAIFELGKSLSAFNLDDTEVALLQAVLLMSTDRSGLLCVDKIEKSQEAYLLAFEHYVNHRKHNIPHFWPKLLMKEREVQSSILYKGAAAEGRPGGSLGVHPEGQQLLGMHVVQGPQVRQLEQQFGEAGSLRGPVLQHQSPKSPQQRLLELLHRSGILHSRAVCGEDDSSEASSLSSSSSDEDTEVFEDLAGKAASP
Sequence of Neuropeptide Y receptor type 1 (Homo sapiens) (P25929 whole entry): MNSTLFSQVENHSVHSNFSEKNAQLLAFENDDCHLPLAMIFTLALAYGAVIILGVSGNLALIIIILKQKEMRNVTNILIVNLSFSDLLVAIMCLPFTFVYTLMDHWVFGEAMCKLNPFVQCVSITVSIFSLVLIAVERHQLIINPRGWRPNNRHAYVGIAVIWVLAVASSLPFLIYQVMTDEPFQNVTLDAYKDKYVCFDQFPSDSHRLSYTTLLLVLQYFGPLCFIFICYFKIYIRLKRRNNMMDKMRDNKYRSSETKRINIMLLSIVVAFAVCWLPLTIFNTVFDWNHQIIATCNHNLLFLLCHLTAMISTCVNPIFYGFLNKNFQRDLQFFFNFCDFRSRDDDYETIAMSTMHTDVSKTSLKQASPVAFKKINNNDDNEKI
Sequence of Leukocyte tyrosine kinase receptor (Homo sapiens) (P29376 whole entry): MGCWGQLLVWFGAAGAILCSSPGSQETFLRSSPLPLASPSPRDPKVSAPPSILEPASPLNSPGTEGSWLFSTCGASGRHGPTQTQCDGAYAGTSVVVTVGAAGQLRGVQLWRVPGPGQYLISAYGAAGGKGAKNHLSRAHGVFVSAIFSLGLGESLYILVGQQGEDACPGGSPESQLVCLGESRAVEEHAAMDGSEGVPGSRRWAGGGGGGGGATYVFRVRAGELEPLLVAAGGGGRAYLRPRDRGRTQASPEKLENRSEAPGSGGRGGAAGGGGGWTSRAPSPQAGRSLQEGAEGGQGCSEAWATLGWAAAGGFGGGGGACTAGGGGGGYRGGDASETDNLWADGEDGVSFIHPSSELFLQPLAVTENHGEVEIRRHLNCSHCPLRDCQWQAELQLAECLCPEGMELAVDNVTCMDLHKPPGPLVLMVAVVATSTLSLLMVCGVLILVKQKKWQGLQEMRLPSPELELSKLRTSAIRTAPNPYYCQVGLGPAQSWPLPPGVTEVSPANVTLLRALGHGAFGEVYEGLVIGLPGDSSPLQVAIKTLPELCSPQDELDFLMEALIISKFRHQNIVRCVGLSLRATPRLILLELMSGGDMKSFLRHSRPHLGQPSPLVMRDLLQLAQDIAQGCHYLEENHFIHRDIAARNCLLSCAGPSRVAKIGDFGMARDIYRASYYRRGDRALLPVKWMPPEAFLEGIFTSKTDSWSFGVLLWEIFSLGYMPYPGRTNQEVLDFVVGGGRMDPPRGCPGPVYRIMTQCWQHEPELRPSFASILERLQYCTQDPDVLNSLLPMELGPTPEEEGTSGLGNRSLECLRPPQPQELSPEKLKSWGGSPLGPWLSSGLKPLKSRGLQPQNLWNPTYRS
Sequence of Dual specificity mitogen-activated protein kinase kinase 4 (Homo sapiens) (P45985 whole entry): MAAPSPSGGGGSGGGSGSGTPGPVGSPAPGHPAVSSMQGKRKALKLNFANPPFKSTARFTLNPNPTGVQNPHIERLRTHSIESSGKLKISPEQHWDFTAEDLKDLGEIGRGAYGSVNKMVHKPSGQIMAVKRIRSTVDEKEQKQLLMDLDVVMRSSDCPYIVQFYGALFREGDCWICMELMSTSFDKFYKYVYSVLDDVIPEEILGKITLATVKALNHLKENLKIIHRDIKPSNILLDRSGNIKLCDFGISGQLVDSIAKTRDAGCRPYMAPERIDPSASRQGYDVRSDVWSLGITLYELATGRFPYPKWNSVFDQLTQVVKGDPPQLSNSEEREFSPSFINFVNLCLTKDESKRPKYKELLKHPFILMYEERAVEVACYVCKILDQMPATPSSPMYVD
Sequence of ATP-sensitive inward rectifier potassium channel 1 isoform X1 (Mesocricetus auratus) (A0A1U8CU73 as listed by the source): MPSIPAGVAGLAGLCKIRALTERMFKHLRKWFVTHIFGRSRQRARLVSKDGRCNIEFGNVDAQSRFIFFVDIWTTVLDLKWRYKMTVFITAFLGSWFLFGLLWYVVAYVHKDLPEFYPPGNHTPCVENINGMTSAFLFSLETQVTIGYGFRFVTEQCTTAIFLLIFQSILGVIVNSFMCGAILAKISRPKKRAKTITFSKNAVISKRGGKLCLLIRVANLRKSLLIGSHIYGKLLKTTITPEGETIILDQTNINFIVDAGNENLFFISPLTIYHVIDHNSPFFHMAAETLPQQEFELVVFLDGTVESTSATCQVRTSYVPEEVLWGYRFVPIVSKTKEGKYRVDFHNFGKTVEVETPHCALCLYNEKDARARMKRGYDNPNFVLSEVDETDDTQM
Sequence of Cannabinoid receptor 1 (Homo sapiens) (P21554 whole entry): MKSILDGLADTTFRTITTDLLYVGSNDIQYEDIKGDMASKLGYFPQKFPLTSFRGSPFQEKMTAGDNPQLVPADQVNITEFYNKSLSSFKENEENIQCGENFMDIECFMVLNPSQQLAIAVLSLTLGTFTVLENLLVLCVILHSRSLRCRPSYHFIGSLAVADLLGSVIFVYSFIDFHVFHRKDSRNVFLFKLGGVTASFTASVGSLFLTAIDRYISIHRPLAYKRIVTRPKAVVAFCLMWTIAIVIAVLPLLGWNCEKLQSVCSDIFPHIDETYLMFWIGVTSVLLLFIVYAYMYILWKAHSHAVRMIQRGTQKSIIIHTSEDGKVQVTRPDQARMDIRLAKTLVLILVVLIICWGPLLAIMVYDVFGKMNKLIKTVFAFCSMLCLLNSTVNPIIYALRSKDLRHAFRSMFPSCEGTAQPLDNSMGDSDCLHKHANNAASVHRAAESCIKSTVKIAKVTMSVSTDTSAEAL
Sequence of P2X purinoceptor (Oryctolagus cuniculus) (G1U3D6 as listed by the source): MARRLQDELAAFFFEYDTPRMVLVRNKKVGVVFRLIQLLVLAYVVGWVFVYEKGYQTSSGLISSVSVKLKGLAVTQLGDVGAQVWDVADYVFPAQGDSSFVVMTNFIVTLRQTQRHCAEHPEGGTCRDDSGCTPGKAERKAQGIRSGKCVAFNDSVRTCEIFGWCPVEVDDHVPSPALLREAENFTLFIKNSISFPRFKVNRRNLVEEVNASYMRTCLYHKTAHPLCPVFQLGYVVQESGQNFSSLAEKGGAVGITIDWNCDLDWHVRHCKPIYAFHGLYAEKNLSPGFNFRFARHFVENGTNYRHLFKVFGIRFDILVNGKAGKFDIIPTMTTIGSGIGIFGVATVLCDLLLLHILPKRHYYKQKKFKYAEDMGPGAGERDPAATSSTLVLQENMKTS
Sequence of Alpha-1B adrenergic receptor (Rattus norvegicus) (P15823 whole entry, looked up): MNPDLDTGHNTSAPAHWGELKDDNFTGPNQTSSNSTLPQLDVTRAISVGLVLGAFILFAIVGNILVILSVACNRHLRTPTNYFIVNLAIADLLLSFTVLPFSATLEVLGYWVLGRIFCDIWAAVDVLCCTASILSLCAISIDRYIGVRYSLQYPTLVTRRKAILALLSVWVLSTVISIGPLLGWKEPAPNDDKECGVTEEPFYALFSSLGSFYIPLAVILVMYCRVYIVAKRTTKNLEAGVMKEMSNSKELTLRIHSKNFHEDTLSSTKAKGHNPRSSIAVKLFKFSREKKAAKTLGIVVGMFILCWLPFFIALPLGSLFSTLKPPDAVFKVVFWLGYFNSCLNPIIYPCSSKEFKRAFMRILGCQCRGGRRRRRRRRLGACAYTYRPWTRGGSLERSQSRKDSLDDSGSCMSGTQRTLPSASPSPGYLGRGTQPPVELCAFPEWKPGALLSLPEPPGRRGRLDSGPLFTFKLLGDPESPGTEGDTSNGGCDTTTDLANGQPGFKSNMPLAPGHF

CS(=O)(=O)c1cc(C2(NC(=O)c3cncc4c3cnn4-c3ccc(F)cc3)CC2)ccn1 [BI 639667]
inactive: [1] 93% | [2] 124% | [3] 82% | [4] 72% | [5] 101% | [6] 101% | [7] 100% | [8] 74%

CS(=O)(=O)NCC[C@H](NC(=O)c1cncc2c1cnn2-c1ccc(F)cc1)c1ccnc(S(C)(=O)=O)c1 [BI 9307]
inactive: [9] 100% | [10] 100%
